Reference: ChEMBL document CHEMBL1201862, “PubChem BioAssay data set” (2004)
Active and inactive are the calls of the source.

Experiments:
[1] = target: Sphingosine 1-phosphate receptor 2 (Homo sapiens, UniProt O95136); assay: Dose Response Cell Based Assay for Antagonists of the S1P2 Receptor. [Related pubchem assays: 856, 736 ]; format: functional
[2] = target: T1, Mannose-6-phosphate isomerase (Homo sapiens, UniProt P34949); assay: MPI inhibition at elevated mannose 6-phosphate – biochemical, fluorescence intensity, high mannose 6-phosphate, primary screen (AID 1220)
T1 sequence (P34949 whole entry): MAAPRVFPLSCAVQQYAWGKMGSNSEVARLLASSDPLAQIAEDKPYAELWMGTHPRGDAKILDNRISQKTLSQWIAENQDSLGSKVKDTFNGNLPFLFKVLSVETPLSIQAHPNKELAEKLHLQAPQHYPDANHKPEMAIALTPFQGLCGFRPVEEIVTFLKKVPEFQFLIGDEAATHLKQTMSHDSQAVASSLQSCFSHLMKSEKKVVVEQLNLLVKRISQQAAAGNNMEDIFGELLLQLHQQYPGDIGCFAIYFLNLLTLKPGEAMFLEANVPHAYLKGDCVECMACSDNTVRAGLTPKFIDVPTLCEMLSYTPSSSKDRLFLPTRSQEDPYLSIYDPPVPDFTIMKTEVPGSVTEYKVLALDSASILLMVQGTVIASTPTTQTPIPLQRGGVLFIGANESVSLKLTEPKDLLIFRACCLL

[3] = target: T1, Mannose-6-phosphate isomerase; assay: MPI enzyme activity inhibition – biochemical, fluorescence intensity, coupled assay, primary screen (AID 1209)
[4] = viability loss in THP-1 monocytes – THP-1 cells, cytotoxicity control for Vif-APOBEC3G degradation inhibitor project, dose response (AID 1117359); format: functional; details: THP-1
[5] = target: Voltage-gated inwardly rectifying potassium channel KCNH2 (Homo sapiens, UniProt Q12809); assay: concentration-dependent hERG rescue from blockers – cell-based, thallium flux, dose response (AID 2121); format: ADME
Sequence of Voltage-gated inwardly rectifying potassium channel KCNH2 (Q12809 whole entry): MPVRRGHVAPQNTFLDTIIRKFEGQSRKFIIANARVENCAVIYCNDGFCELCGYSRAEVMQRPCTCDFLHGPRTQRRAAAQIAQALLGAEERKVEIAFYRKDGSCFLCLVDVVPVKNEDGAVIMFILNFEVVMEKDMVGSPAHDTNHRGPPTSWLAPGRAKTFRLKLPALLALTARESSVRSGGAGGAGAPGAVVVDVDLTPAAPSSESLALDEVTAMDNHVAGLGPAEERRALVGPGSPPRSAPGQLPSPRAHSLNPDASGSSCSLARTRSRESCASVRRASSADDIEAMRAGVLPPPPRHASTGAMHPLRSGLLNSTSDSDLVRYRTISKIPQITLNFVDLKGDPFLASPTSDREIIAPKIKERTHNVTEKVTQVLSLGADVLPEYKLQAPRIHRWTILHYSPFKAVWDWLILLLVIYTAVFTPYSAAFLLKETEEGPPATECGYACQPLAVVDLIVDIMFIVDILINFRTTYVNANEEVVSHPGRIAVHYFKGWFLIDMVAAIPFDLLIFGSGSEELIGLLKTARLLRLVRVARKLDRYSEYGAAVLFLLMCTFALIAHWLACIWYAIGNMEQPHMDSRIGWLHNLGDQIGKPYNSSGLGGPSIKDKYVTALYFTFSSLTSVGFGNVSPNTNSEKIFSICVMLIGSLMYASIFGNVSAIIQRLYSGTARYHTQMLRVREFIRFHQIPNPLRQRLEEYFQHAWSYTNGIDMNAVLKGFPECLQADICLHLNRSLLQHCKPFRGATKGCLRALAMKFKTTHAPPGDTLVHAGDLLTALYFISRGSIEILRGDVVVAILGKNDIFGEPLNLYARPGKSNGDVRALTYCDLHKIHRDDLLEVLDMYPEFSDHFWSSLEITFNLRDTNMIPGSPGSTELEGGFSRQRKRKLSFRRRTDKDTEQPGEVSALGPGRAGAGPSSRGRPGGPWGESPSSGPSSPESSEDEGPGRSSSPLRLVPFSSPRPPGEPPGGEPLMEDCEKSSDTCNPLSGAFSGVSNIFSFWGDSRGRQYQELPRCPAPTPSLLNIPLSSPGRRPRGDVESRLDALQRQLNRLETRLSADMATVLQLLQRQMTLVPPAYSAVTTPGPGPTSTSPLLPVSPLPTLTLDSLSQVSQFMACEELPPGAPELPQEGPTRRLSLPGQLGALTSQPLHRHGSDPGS

[6] = target: E3 ubiquitin-protein ligase Mdm2 (Homo sapiens, UniProt Q00987); assay: MDM2-luc reporter signal enhancers, multi-concentration potency testing, MDM2 ubiquitin-protein ligase inhibitor program, whole-cell format, luminescence detection, 384-well microplate (AID 1394); format: functional;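 further: MDM2 E3 inhibitors raise luminescence so EC50 is for signal enhancement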
Sequence of E3 ubiquitin-protein ligase Mdm2 (Q00987 whole entry): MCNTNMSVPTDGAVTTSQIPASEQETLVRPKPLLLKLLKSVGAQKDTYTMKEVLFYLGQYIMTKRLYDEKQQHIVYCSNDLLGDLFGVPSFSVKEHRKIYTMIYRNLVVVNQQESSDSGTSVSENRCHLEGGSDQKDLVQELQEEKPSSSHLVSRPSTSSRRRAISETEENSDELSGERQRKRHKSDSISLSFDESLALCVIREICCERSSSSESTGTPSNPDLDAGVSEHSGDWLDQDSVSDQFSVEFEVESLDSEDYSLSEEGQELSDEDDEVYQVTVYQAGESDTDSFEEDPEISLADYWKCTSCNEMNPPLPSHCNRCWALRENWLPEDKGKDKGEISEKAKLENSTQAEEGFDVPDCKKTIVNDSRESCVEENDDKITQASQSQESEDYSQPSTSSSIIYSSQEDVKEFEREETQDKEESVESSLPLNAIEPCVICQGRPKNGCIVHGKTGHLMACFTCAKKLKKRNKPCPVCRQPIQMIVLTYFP

[7] = Trypanosoma cruzi growth suppression in host cells – NIH3T3 host cells, beta-gal luminescence, confirmation (AID 2044); format: functional, cell-based;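 further: intracellular parasites grown in NIH/3T3 mouse fibroblasts as host cells; luminescent beta-galactosidase reporter signal from transgenic T. cruzi replicating inside host cells; inhibitors lower the luminescence signal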
[8] = system: Streptococcus sp. 'group A'; assay: Streptococcus pyogenes SK(-)GAS viability under kanamycin – luminescence, BacTiterGlo, confirmation, counter-screen for streptokinase expression inhibitor project, dose response (AID 1900); format: functional, organism-based
[9] = NIH3T3 cell viability loss – ATP luminescence, mouse fibroblasts, counter-screen, dose response (AID 2010); format: functional, cell-based;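 further: cells exposed to compound for about 90 hours before reading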
Streptococcus = assay: GAS UMAA2166 growth inhibition – luminescence, BacTiterGlo, counter-screen for streptokinase expression inhibitor project, dose response (AID 1915); format: functional, organism-based;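 further: potency for reduction of bacterial viability or growth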
H4 = assay: Luminescence Cell-Based Dose Response HTS to Identify Activators of 5'UTR Stem-Loop Driven Prion Protein mRNA Translation in H4 Neuroglioblastoma Cells. [Related pubchem assays: 1829 (Project Summary), 1814 (Primary HTS)]; format: functional; details: Homo sapiens
[10] = Luminescence Cell-Based Dose Response HTS to Identify Activators of Luciferase Translation or Activity in H4 […] Cells. [Related pubchem assays: 1829 (Project Summary), 1814 (Primary HTS)]; format: functional
[11] = Luminescence Cell-Based Dose Confirmation to Identify Activators of 5'UTR Stem-Loop Driven Alpha-Synuclein mRNA Translation in H4 Neuroglioblastoma Cells. [Related pubchem assays: 1829 (Project Summary), 1814 (Primary HTS)]; format: functional
[12] = Luminescence Cell-Based Dose Response to Identify Activators of Luciferase Translation or Activity in H4-C Neuroglioblastoma Cells. [Related pubchem assays: 1829 (Project Summary), 1814 (Primary HTS)]; format: functional
[13] = Luminescence Cell-Based Dose Response to Identify Activators of 5'UTR Stem-Loop Driven Prion Protein mRNA Translation in H4-C Neuroglioblastoma Cells. [Related pubchem assays: 1829 (Project Summary), 1814 (Primary HTS)]; format: functional
[14] = target: T2, Apoptotic protease-activating factor 1 (Homo sapiens, UniProt O14727); format: functional
T2 sequence (O14727 whole entry): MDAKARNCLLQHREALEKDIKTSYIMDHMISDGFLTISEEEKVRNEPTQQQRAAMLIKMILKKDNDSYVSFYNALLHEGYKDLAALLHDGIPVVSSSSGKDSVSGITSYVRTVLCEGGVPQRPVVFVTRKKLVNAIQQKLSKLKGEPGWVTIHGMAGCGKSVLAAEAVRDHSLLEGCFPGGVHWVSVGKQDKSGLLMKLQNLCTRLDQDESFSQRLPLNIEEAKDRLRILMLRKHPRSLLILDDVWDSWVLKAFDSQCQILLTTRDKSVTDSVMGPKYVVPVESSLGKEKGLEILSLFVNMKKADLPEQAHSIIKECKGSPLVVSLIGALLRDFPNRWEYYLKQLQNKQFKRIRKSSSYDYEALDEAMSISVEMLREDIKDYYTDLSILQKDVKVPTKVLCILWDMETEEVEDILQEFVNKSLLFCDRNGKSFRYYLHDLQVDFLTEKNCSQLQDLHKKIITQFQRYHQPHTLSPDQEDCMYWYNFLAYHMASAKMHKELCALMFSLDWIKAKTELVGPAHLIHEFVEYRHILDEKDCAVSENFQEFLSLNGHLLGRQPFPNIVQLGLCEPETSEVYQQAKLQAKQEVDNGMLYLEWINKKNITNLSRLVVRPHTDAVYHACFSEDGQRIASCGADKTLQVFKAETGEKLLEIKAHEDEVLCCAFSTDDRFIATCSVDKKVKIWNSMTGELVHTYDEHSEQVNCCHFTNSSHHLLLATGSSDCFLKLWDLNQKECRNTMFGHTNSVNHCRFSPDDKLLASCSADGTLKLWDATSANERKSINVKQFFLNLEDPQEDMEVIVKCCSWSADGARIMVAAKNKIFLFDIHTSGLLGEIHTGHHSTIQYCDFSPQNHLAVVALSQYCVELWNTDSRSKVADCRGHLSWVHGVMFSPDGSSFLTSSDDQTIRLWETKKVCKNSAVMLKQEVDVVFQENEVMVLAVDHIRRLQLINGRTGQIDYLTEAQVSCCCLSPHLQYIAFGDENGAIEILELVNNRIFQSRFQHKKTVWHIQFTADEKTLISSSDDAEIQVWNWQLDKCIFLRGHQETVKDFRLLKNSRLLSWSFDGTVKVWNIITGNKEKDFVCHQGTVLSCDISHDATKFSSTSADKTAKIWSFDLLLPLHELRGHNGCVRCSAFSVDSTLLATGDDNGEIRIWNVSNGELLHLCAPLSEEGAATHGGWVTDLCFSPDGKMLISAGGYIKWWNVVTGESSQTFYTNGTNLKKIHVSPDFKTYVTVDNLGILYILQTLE

[15] = target: T3, Aryl hydrocarbon receptor (Homo sapiens, UniProt P35869); assay: Luminescence-based cell-based high throughput dose response assay for activators of the Aryl Hydrocarbon Receptor (AHR). [Related pubchem assays: 2796 (Primary screen (AHR activators in singlicate)), 2845 (Confirmation screen (AHR activators in triplicate)), 434939 (Counterscreen (PXR activators in triplicate)), 2804 (Summary (AHR activators))]; format: ADME
T3 sequence (P35869 whole entry): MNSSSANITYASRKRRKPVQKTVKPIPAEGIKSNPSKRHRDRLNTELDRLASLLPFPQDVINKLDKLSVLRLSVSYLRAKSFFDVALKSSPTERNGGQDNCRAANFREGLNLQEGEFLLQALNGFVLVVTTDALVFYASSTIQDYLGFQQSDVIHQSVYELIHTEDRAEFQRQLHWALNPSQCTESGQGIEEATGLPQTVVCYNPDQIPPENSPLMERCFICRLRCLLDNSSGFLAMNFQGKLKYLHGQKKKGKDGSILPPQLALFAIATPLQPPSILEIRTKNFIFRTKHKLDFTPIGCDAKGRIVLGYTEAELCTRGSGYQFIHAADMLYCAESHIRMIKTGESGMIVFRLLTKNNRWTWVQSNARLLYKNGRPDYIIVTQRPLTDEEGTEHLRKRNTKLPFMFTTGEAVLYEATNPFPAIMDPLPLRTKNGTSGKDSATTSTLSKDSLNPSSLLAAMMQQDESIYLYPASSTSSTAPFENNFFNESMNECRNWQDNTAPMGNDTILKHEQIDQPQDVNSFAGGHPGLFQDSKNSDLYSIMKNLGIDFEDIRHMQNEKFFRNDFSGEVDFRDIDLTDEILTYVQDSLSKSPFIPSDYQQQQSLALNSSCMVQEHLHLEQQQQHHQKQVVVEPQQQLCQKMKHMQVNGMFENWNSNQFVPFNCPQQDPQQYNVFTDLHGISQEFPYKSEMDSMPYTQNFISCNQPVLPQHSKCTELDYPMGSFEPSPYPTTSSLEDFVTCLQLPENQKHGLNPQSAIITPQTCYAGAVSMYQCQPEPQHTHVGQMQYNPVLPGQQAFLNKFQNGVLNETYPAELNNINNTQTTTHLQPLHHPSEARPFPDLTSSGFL

Sequence of Sphingosine 1-phosphate receptor 2 (O95136 whole entry): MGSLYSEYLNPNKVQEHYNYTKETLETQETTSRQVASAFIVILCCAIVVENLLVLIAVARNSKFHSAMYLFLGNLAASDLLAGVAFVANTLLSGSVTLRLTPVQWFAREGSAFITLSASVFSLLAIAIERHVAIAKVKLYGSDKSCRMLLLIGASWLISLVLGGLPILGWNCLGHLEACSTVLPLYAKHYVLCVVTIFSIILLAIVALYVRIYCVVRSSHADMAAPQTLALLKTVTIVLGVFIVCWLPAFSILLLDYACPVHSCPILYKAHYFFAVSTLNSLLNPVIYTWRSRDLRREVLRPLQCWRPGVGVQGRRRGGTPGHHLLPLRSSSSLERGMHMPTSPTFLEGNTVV

FC(F)(F)c1cnc2c(-c3cccs3)c(-c3nc[nH]n3)sc2c1
IC50 [1]: 13.9 µM (not active)

CC(C)NC[C@@H](O)c1ccc(O)c(O)c1
IC50 [2]: > 50 µM (not active)
IC50 [3]: > 50 µM (not active)
CC50 [4]: > 40 µM (active)

O=C(NC(=S)Nc1cc(C(F)(F)F)ccc1Cl)c1ccccc1
EC50 [5]: 0.24 µM (active)

Cc1nc(SCc2ccc(F)cc2)c([N+](=O)[O-])[nH]1
EC50 [6]: 7.19 µM (not active)

Cn1c(-c2c(N)n(C3CCCC3)c3nc4ccccc4nc23)nc2ccccc21
EC50 [7]: 0.905 µM (active)
EC50 [8]: 0.391 µM (active)
EC50 [9]: > 30 µM (not active)
EC50 (Streptococcus): 2.96 µM (active)
IC50 [1]: 5.09 µM (active)

Cc1cc(NC(=O)c2noc3c2CCCCC3)no1
EC50 (H4): 32.2 µM (active)
EC50 [10]: < 0.1 µM (inconclusive)
EC50 [11]: 5.07 µM (active)
EC50 [12]: 0.648 µM (active)
EC50 [13]: 2.21 µM (active)

CCN1C(=O)c2cccc3c(N)ccc1c23
IC50 [2]: > 50 µM (not active)
IC50 [14]: 44 µM (active)

C/C(=N/Nc1ccc(F)cc1)c1ccc(Cl)s1
EC50 [15]: 4.71 µM (active)

CCC(=O)NC(=S)Nc1ccc(NC(=O)c2ccco2)c(Cl)c1
EC50 [15]: 4.47 µM (active)
